SMILES	melting point
CC(C)(N)c1ccc(-c2ccc3[nH]ncc3c2C#N)cc1.Cl	270 to 272 °C
CC(C)(N)c1ccc(-c2ccc3[nH]ncc3c2-c2ccno2)cc1.Cl.Cl	256 to 258 °C (dec.)
CN(C)/C=C/C(=O)c1c(-c2ccc(C(C)(C)NC(=O)OC(C)(C)C)cc2)ccc2nn(C3CCCCO3)cc12 (centres unmarked) [Compound 14, 5-[4-(1-tert-butoxycarbonylamino-1-methylethyl)phenyl]-4-(3-dimethylaminoacryloyl)-2-(tetrahydropyran-2-yl)-2H-indazole]	191 to 194 °C
CC(C)(N)c1ccc(-c2ccc3[nH]ncc3c2[N+](=O)[O-])cc1.Cl	255 to 261 °C (dec.)

Other lines, results leading:

melting point	SMILES
170 to 173 °C	CC(C)(N)c1ccc(-c2ccc3[nH]ncc3c2OC(F)F)nc1.Cl.Cl.Cl
209 to 213 °C (dec.)	CC(C)(N)c1ccc(-c2ccc3[nH]ncc3c2C2CC2)nc1.Cl.Cl.Cl
219 to 224 °C (dec.)	CN(C)c1c(-c2ccc(C(C)(C)N)cc2)ccc2[nH]ncc12.Cl.Cl.Cl
258 to 261 °C (dec.)	COc1c(-c2ccc(C(C)(C)N)cc2)ccc2[nH]ncc12.Cl.Cl
